In patent US10807960B2, “Compounds, compositions, and methods for controlling biofilms” (KATHOLIEKE UNIVERSITEIT LEUVEN, priority 2015, dated 2020):
Where two headings read alike, the source gives them in different places.

Legend:
E. coli TG1 = assay: static peg (Calgary Biofilm Device) anti-biofilm assay, crystal violet and OD600; details: for IC50: 37° C.
osteoblasts (OB) [1] = assay: mammalian-cell viability assay, trypan blue staining; type: cell-based; details: 12.5 μM, 6 days exposure
Procedure: (§1) Cell viability of two human primary cell types, namely, osteoblasts (OB) and bone-marrow derived mesenchymal stem cells (MSC) was tested according to the ISO 10993-5 standard, as previously described. Briefly, cells were seeded in 96-well tissue culture test plates (TPP, Switzerland) at 5×10^3 cells/cm^2 in Advanced DMEM cell culture media supplemented with 10% serum, 1× GlutaMAX, 0.05 mg/mL Gentamycin, and were allowed to attach overnight. The next day, the cells were exposed to (i) cell culture medium and medium with the corresponding control (0.5% ethanol or DMSO) (negative controls), (ii) medium with 0.05% phenol (cytotoxic control), and (iii) medium with compounds (12.5 μM) and incubated for 2 h, 48 h and 6 days (8 repeats for each condition). At each time-point the numbers of viable and dead cells were determined directly by trypan blue staining, and indirectly by measuring the metabolic activity with MTT (3-(4,5-dimethylthiazol-2-yl)-2,5-diphenyltetrazolium bromide) staining.
(§2) The medium was removed from the wells, and 1/3 trypan blue in Dulbecco's modified Eagle's medium (DMEM) was added to the cells, incubated for 3 min, after which trypan blue was removed and DMEM medium was added to the wells. In each of four wells, two microscopy fields were counted for viable (transparent) and dead (blue) cells.

[2] = tested on: bone-marrow derived mesenchymal stem cells (MSC); assay: as above; type: cell-based; details: 12.5 μM, 6 days exposure
Procedure: as §1, §2

[3] = tested on: E. coli TG1 + P. aeruginosa PA14; assay: mixed E. coli/P. aeruginosa biofilm assay, crystal violet; type: cell-based; details: for IC50: 37° C. (Table 3)
Procedure: Overnight cultures of E. coli TG1 and P. aeruginosa PA14, were diluted 1/100 in the same vial of TSB 1/20 to form a mixed culture suspension.

[4] = tested on: C. albicans SC5314 + S. epidermidis; assay: mixed C. albicans/S. epidermidis biofilm assay, selective plating; type: cell-based, Candida albicans; Staphylococcus epidermidis; details: for activity at 100 µM: 100 μM (Table 5); for activity at 25 µM: 25 μM (Table 5)
Procedure: The concentrations 25 μM (0.0625% DMSO or ethanol) and 100 μM (0.25% DMSO or ethanol) were tested. After 24 h of incubation at 37° C., biofilms were washed with PBS and fresh medium with or without compounds was added. After further incubation for 48 h at 37° C., the biofilms were washed with PBS after which the cells were re-suspended in 100 μl of PBS by scraping off, sonication (1 min, 45 kHz, USC300-T; VWR, Radnor, Pa., USA) and vigorously pipetting up-and-down. Finally, the biofilm cells were diluted in PBS and plated on YPD agar plates containing 100 mg/L ampicillin and TSA plates containing 25 mg/L amphotericin B, to determine the number of fungal and bacterial CFUs after 2 days of incubation at 37° C., respectively. The percentage of C. albicans SC5314 and S. epidermidis cells was determined relative to the DMSO or ethanol control treatment.

S. liquefaciens MG44 = assay: static peg (Calgary Biofilm Device) anti-biofilm assay, crystal violet and OD600; type: cell-based, Serratia liquefaciens; details: 25° C.
B. cepacia LMG1222T = assay: as above; details: for IC50: 25° C.
P. gingivalis ATCC33277 = assay: as above
S. epidermidis = assay: as above; details: for IC50: 37° C.
S. aureus ATCC6538 = assay: as above; details: 37° C.
S. aureus SH1000 = assay: as above; details: for IC50: 37° C.
S. Typhimurium ATCC14028 = assay: as above
[5] = tested on: S. aureus ATCC6538 + S. epidermidis; assay: mixed S. aureus/S. epidermidis biofilm assay, crystal violet; type: cell-based; details: 37° C. (Table 3)
Procedure: Overnight cultures of S. aureus ATCC6538 and S. epidermidis were grown in LB medium and were diluted 1/200 in the same vial of TSB to form a mixed culture suspension.

P. aeruginosa PA14 = assay: static peg (Calgary Biofilm Device) anti-biofilm assay, crystal violet and OD600
C. albicans SC5314 = assay: inhibition of C. albicans biofilms, cell titer blue (CTB) quantification; type: cell-based, Candida albicans
Procedure: The potential of the compounds to prevent C. albicans SC5314 biofilm formation was assessed using the cell titer blue (CTB) quantification method (26). For the CTB method, an overnight culture of C. albicans SC5314 was washed with PBS and a cell suspension of 10^6 cells/ml (OD600=0.1) was prepared in RPMI 1640 medium (pH 7.0). […] After 16 h of static incubation at 37° C., biofilms were washed and quantified with CTB as described previously.

osteoblasts (OB) [6] = assay: osteogenic differentiation, calcium and DNA assay; type: cell-based, human; details: 12.5 μM, calcium content normalized by DNA, versus solvent control
Procedure: (§3) The effect on osteogenic differentiation potential was assessed as previously described. Only the substances that allowed survival of the cells for more than 3 weeks, which is the time needed for mature osteogenic differentiation, were tested. Briefly, osteoblasts and bone-marrow derived mesenchymal stem cells were cultured in a positive solvent control (osteogenic medium with 0.5% DMSO or ethanol background), a negative control (medium without osteogenic supplements) and treated samples (osteogenic medium, 0.5% DMSO or ethanol background and 12.5 μM of test compound) with four repeats per condition. Mesenchymal stem cells and osteoblast cell cultures were harvested after 3 or 5 weeks, respectively, for the calcium and DNA assay.
(§4) Calcium deposition of osteoblasts and mesenchymal stem cells was measured with the Calcium CPC LiquiColor test (Stanbio Laboratory, Boerne, Tex.) as previously described. Briefly, cell cultures were extracted with 5% trichloroacetic acid (500 μl per sample), O-cresolphtalein complex was added, and the calcium content was determined spectrophotometrically at 550 nm. DNA content was determined as previously described. DNA values were used to normalize the calcium content. Four wells per condition were examined, and two samples from each well were taken for each assay.

[7] = tested on: bone-marrow derived mesenchymal stem cells (MSC); assay: osteogenic differentiation, calcium and DNA assay; type: cell-based, human; details: 12.5 μM, calcium content normalized by DNA, versus solvent control
Procedure: as §3, §4

[8] = C. albicans in mixed biofilm with S. epidermidis, read-out: CFUs % survival C.a.
[9] = S. epidermidis in mixed biofilm with C. albicans, read-out: CFUs % survival Se.
[10] = read-out: BIC50, biofilm formation
[11] = mixed biofilm formation, read-out: BIC50
[12] = planktonic growth of mixed culture, read-out: IC50

## CCCCCCCCn1c(-c2ccccc2)cnc1NCC(C)C [Compound 8a, N-isobutyl-1-octyl-5-phenyl-1H-imidazol-2-amine]
E. coli TG1; biofilm at 37° C.
  anti-biofilm activity (in words): showed activity
E. coli TG1; biofilm cells at 25° C.
  anti-biofilm activity (in words): potent activity
Osteoblasts (OB) [1]
  proliferation (in words): slightly reduced
[2]
  proliferation (in words): slightly reduced
[3]
  inhibition of the mixed biofilm P. aeruginosa/E. coli (in words): strongly inhibited
[4]; [8]
  activity at 100 µM: 1%
[4]; [9]
  activity at 100 µM: 1%

## Brc1ccc(-c2cnc(NCCn3cc(C4CC4)nn3)[nH]2)cc1 [Compound 6]
S. liquefaciens MG44; biofilm formation, read-out: BIC50
  IC50: 63.3 µM
S. liquefaciens MG44; planktonic growth, read-out: IC50
  IC50: > 400 µM
B. cepacia LMG1222T; monospecies biofilm
  anti-biofilm activity (in words): No activity
B. cepacia LMG1222T; planktonic growth
  IC50: > 400 µM
B. cepacia LMG1222T; [10]
  IC50: > 400 µM
P. gingivalis ATCC33277; planktonic growth, 37° C.
  IC50: 19.5 µM
P. gingivalis ATCC33277; [10]
  IC50: 18.1 µM
S. epidermidis; monospecies biofilm
  anti-biofilm activity (in words): No activity
S. epidermidis; planktonic growth
  IC50: > 400 µM
S. epidermidis; [10]
  IC50: > 400 µM
S. aureus ATCC6538; planktonic growth
  IC50: > 400 µM
S. aureus ATCC6538; [10]
  IC50: 75.2 µM
E. coli TG1; planktonic growth
  IC50: 183 µM
E. coli TG1; [10]
  IC50: ~192 µM
S. aureus SH1000; monospecies biofilm
  anti-biofilm activity (in words): No activity
S. aureus SH1000; planktonic growth
  IC50: > 400 µM
S. aureus SH1000; [10]
  IC50: > 400 µM
[3]; [11]
  IC50: 34.6 µM
[3]; [12]
  IC50: > 400 µM
S. Typhimurium ATCC14028; planktonic growth, 25° C.
  IC50: 2.4 µM
S. Typhimurium ATCC14028; [10]
  IC50: 2 µM
[5]; [11]
  IC50: 33.9 µM
[5]; [12]
  IC50: ~392 µM
P. aeruginosa PA14; monospecies biofilm, 37° C.
  anti-biofilm activity (in words): No activity
P. aeruginosa PA14; planktonic growth, 25° C.
  IC50: > 400 µM
P. aeruginosa PA14; planktonic growth, 37° C.
  IC50: > 400 µM
P. aeruginosa PA14; read-out: BIC50, biofilm formation, 25° C.
  IC50: 71.6 µM
P. aeruginosa PA14; read-out: BIC50, biofilm formation, 37° C.
  IC50: > 400 µM
C. albicans SC5314; biofilm formation, 37° C., read-out: BIC50
  IC50: > 400 µM
C. albicans SC5314; monospecies biofilm, novel compounds: highest concentration tested 100 μM
  anti-biofilm activity (in words): No activity

## CCCCCCCCn1c(-c2ccccc2)cnc1NC1CCCC1 [Compound 8e, N-cyclopentyl-1-octyl-5-phenyl-1H-imidazol-2-amine]
E. coli TG1; biofilm at 37° C.
  anti-biofilm activity (in words): showed activity
E. coli TG1; biofilm cells at 25° C.
  anti-biofilm activity (in words): potent activity
Osteoblasts (OB) [1]
  proliferation (in words): slightly reduced
[2]
  proliferation (in words): slightly reduced
[3]
  inhibition of the mixed biofilm P. aeruginosa/E. coli (in words): at higher concentrations
[4]; [8]
  activity at 25 µM: 10%
  activity at 100 µM: 2.5%
[4]; [9]
  activity at 100 µM: 0%

## CCCCCCCCn1c(-c2ccc(Cl)cc2)cnc1NCC(C)C [Compound 8b, 5-(4-chlorophenyl)-N-isobutyl-1-octyl-1H-imidazol-2-amine]
Osteoblasts (OB) [6]
  calcium deposition (in words): induced the calcium deposition
[7]
  calcium deposition (in words): induced the calcium deposition
E. coli TG1; biofilm cells at 25° C.
  anti-biofilm activity (in words): potent activity
[4]; [8]
  activity at 25 µM: 2%
[4]; S. epidermidis in mixed biofilm with C. albicans, read-out: CFUs % survival S.c.
  activity at 25 µM: 6.1%
[4]; [9]
  activity at 100 µM: 0.7%
